# Tested on: bladder
# Assay: in vivo cystometry (CMG) in urethane anesthetized rats, PGE2 model of bladder dysfunction
# Design: species or system female Wistar rats
# Conditions: intravesical infusion of PGE2 (100 μM), no stimulation, vs control rats (FIG. 5A)
# Procedure: In the following examples, an accepted animal model of bladder dysfunction was used: the PGE2 (prostoglandin E2) model, in which installation of PGE2 into rats induces a hyperactive bladder response. In addition, a cat model of bladder dysfunction was used. […] Acute experiments were conducted in urethane (1.2 g/kg, SC) anesthetized female Wistar rats using in vivo cystometry (CMG). A PE-90 catheter was placed to measure bladder pressure and for intravesical infusion of saline and PGE2 (100 μM). Bipolar electrodes were placed on the external urethral sphincter (EUS) to measure electromyographic (EMG) activity and a bipolar nerve cuff electrode was placed on the sensory branch of the pudendal nerve for stimulation. In a subset of trials after PGE2 infusion, electrical stimulation of the sensory branch of the pudendal nerve was delivered at different amplitudes (0.5-10× EUS reflex threshold, T) and frequencies (1-50 Hz). T may be determined as follows: a low frequency electrical signal, typically 1 Hz, is applied and the intensity of stimulation is increased (either by increasing the voltage or the current of the signal, preferably the current) until the pudendal nerve stimulation pulse produces a reflex EMG response in the EUS.
smiles,measurement,value
"CCCCC[C@H](O)/C=C/[C@H]1[C@H](O)CC(=O)[C@@H]1C/C=C\CCCC(=O)O [PGE2, prostoglandin E2]",changes in bladder capacity,reduces bladder capacity

# Source: patent publication US12329967B2, “State-dependent peripheral neuromodulation to treat bladder dysfunction” (Duke University, priority 2015, dated 2025)
